The text below walks through data of patent publication US20210269434A1, “TRICYCLIC COMPOUNDS AS INHIBITORS OF KRAS” (Incyte Corporation, priority 2020, published 2021).

One experiment concerns the target KRAS G12C (Homo sapiens, UniProt P01116, G12C). Put plainly: GDP-GTP exchange assay (KRAS_G12C exchange). Format: biochemical. The following applies: bodipy-GDP loaded KRAS G12C 2.5 nM, SOS1 150 nM, GppNHp; 2 hours pre-incubation, 2 hours reaction; read-out: G12C_exchange. How it is done:
Example A. GDP-GTP Exchange Assay
The inhibitor potency of the exemplified compounds was determined in a fluorescence based guanine nucleotide exchange assay, which measures the exchange of bodipy-GDP (fluorescently labeled GDP) for GppNHp (Non-hydrolyzable GTP analog) to generate the active state of KRAS in the presence of SOS1 (guanine nucleotide exchange factor). Inhibitors were serially diluted in DMSO and a volume of 0.1 μL was transferred to the wells of a black low volume 384-well plate. 5 μL/well volume of bodipy-loaded KRAS G12C diluted to 5 nM in assay buffer (25 mM Hepes pH 7.5, 50 mM NaCl, 10 mM MgCl2 and 0.01% Brij-35) was added to the plate and pre-incubated with inhibitor for 2 hours at ambient temperature. Appropriate controls (enzyme with no inhibitor or with a G12C inhibitor (AMG-510)) were included on the plate. The exchange was initiated by the addition of a 5 μL/well volume containing 1 mM GppNHp and 300 nM SOS1 in assay buffer. The 10 μL/well reaction concentration of the bodipy-loaded KRAS G12C, GppNHp, and SOS1 were 2.5 nM, 500 uM, and 150 nM, respectively. The reaction plates were incubated at ambient temperature for 2 hours, a time estimated for complete GDP-GTP exchange in the absence of inhibitor. For the KRAS G12D and G12V mutants, similar guanine nucleotide exchange assays were used with 2.5 nM as final concentration for the bodipy loaded KRAS proteins and with 4 hours and 3 hours incubation after adding GppNHp-SOS1 mixture for G12D and G12V respectively. A cyclic peptide described to selectively bind G12D mutant (Sakamoto et al., BBRC 484.3 (2017), 605-611) or internal compounds with confirmed binding were used as positive controls in the assay plates. Fluorescence intensities were measured on a PheraStar plate reader instrument (BMG Labtech) with excitation at 485 nm and emission at 520 nm.
Either GraphPad prism or XLfit was used to analyze the data. The IC50 values were derived by fitting the data to a four parameter logistic equation producing a sigmoidal dose-response curve with a variable Hill coefficient. Prism equation: Y=Bottom+(Top−Bottom)/(1+10^((Log lC50−X)*Hill slope)); XLfit equation: Y=(A+((B−A)/(1+((X/C)^D)))) where X is the logarithm of inhibitor concentration and Y is the response.

In experiment [1] the test system is MIA PaCa-2 (KRAS G12C) cells. As to the kind of experiment: Cellular pERK HTRF assay (KRAS_G12C pERK). The following applies: Homo sapiens, MIA PaCa-2, 4 hours incubation, read-out: G12C_pERK. Format: cell-based, human. How it is done:
Example C: Cellular pERK HTRF Assay
MIA PaCa-2 (KRAS G12C; ATCC® CRL-1420), A427 (KRAS G12D; ATCC® HTB53), HPAF-II (KRAS G12D; ATCC® CRL-1997) and NCI-H838 (KRAS WT; ATCC® CRL-5844) cells are purchased from ATCC and maintained in RPMI 1640 media supplemented with 10% FBS (Gibco/Life Technologies). The cells are plated at 5000 cells per well (8 uL) into Greiner 384-well low volume, flat-bottom, tissue culture treated white plates and incubated overnight at 37° C., 5% CO2. The next morning, test compound stock solutions are diluted in media at 3× the final concentration, and 4 uL are added to the cells. The plate is mixed by gentle rotation for 30 seconds (250 rpm) at room temperature. The cells are incubated with the KRAS G12C and G12D compounds for 4 hours or 2 hours respectively at 37° C., 5% CO2.
4 uL of 4× lysis buffer with blocking reagent (1:25) (Cisbio) are added to each well and plates are rotated gently (300 rpm) for 30 minutes at room temperature. 4 uL per well of Cisbio anti Phospho-ERK 1/2 d2 is mixed with anti Phospho-ERK 1/2 Cryptate (1:1) are added to each well, mixed by rotation and incubated overnight in the dark at room temperature. Plates are read on the Pherastar plate reader at 665 nm and 620 nm wavelengths. IC50 determination is performed by fitting the curve of inhibitor percent inhibition versus the log of the inhibitor concentration using the GraphPad Prism 7 software.
(In general: In TR-FRET formats the signal depends on donor and acceptor labels being close together.)

The structures appear in SMILES notation. Where only a bound is given, the exact number is not on record here.

KRAS G12C, sequence (P01116 1-188 isoform P01116-2 G12C): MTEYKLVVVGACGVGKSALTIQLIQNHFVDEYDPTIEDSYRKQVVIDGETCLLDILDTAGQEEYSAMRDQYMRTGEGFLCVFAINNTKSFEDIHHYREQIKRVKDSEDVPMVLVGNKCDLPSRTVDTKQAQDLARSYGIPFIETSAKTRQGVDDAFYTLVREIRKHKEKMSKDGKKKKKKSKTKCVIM

Regarding `CC#CC(=O)N1CC[C@H](n2nnc3c(OC[C@@H]4CCCN4C)nc4c(F)c(-c5cccc(Cl)c5C)c(Cl)cc4c32)C[C@H]1CC#N` (single isomer, unassigned) [Example 87a], the IC50 (on KRAS G12C; in experiment [1]) was at most 100 nM each time.
Regarding `C=CC(=O)N1CCC(n2cnc3c(OC[C@@H]4CCCN4C)nc4c(F)c(-c5cccc(F)c5C)c(Cl)cc4c32)CC1CC#N` (mixture of isomers) [Example 42, 2-(1-acryloyl-4-(8-chloro-6-fluoro-7-(3-fluoro-2-methylphenyl)-4-(((S)-1-methylpyrrolidin-2-yl)methoxy)-1H-imidazo[4,5-c]quinolin-1-yl)piperidin-2-yl)acetonitrile], the IC50 (at KRAS G12C; in experiment [1]) was at most 100 nM each time.
Regarding `C=CC(=O)N1CCC(n2cnc3cnc4c(F)c(-c5c(O)cccc5F)c(Cl)cc4c32)CC1` [Example 13, 1-(4-(8-Chloro-6-fluoro-7-(2-fluoro-6-hydroxyphenyl)-1H-imidazo[4,5-c]-quinolin-1-yl)piperidin-1-yl)prop-2-en-1-one], the IC50 on KRAS G12C lay in the range of 100 to 1000 nM; in experiment [1], 1000 to 5000 nM.
In the case of `CC#CC(=O)N1CC[C@H](n2nnc3c(N4CC(C)(N(C)C)C4)nc4c(F)c(-c5cccc(Cl)c5C)c(C)cc4c32)C[C@H]1CC#N` [Example 103, 2-((2S,4S)-1-(but-2-ynoyl)-4-(7-(3-chloro-2-methyl-phenyl)-4-(3-(dimethyl-amino)-3-methylazetidin-1-yl)-6-fluoro-8-methyl-1H-[1,2,3]triazolo[4,5-c]quinolin-1-yl)piperidin-2-yl)acetonitrile], the IC50 (at KRAS G12C; in experiment [1]) was at most 100 nM in each case.
As to `C=CC(=O)N1CCC(n2cnc3c(OC[C@@H]4CCCN4C)nc4c(F)c(-c5cccc6cccc(Cl)c56)c(Cl)cc4c32)C[C@H]1CC#N` (single isomer, unassigned) [Example 215b], the IC50 (on KRAS G12C; in experiment [1]) was at most 100 nM each time.
Regarding `COC/C=C/C(=O)N1CC[C@H](n2cnc3c(N4CC5(CCCN5C)C4)nc4c(F)c(-c5c(C)c(Cl)cc6[nH]ncc56)c(Cl)cc4c32)C[C@H]1CC#N` [Example 84a, 2-((2S,4S)-4-(8-chloro-7-(6-chloro-5-methyl-1H-indazol-4-yl)-6-fluoro-4-(5-methyl-2,5-diazaspiro[3.4]octan-2-yl)-1H-imidazo[4,5-c]quinolin-1-yl)-1-((E)-4-methoxybut-2-enoyl)piperidin-2-yl)acetonitrile], the IC50 (at KRAS G12C; in experiment [1]) was at most 100 nM throughout.
`Cc1cc2c(nc(N3CC(N(C)C)C3)c3nnn([C@H]4CCN(C(=O)/C=C/CN(C)C)[C@H](CC#N)C4)c32)c(F)c1-c1ccccc1C(F)(F)F` (single isomer, unassigned) [Example 163a]: the IC50 (on KRAS G12C; in experiment [1]) was at most 100 nM in each case.
Turning to `COc1c(C)cccc1-c1c(C(F)(F)F)cc2c(nc(N3CC(C)(N(C)C)C3)c3nnn([C@H]4CCN(C(=O)/C=C/CN(C)C)[C@H](CC#N)C4)c32)c1F` [Example 246, 2-((2S,4S)-4-(7-(2-methoxy-3-methylphenyl)-4-(3-(dimethylamino)-3-methylazetidin-1-yl)-6-fluoro-8-(trifluoromethyl)-1H-[1,2,3]triazolo[4,5-c]quinolin-1-yl)-1-((E)-4-(dimethylamino)but-2-enoyl)piperidin-2-yl)acetonitrile], the IC50 (on KRAS G12C; in experiment [1]) was at most 100 nM in each case.
For the molecule `CC#CC(=O)N1CC[C@H](n2nnc3c(N4CC(C)(N(C)C)C4)nc4c(F)c(-c5ccc(F)c6cccnc56)c(C(F)(F)F)cc4c32)C[C@H]1CC#N` [Example 234, 2-((2S,4S)-1-(but-2-ynoyl)-4-(4-(3-(dimethylamino)-3-methylazetidin-1-yl)-6-fluoro-7-(5-fluoroquinolin-8-yl)-8-(trifluoromethyl)-1H-[1,2,3]triazolo[4,5-c]quinolin-1-yl)piperidin-2-yl)acetonitrile], the IC50 (at KRAS G12C; in experiment [1]) was at most 100 nM throughout.
Turning to `C=CC(=O)N1CC[C@H](n2nnc3c(OC[C@@H]4CCCN4C)nc4c(F)c(-c5ccc(F)c(Cl)c5)c(Cl)cc4c32)C[C@H]1CC#N` [Example 85, 2-((2S,4S)-1-acryloyl-4-(8-chloro-7-(3-chloro-4-fluorophenyl)-6-fluoro-4-(((S)-1-methylpyrrolidin-2-yl)methoxy)-1H-[1,2,3]triazolo[4,5-c]quinolin-1-yl)piperidin-2-yl)acetonitrile], the IC50 (at KRAS G12C; in experiment [1]) was at most 100 nM throughout.
Consider `CC#CC(=O)N1CC[C@H](n2nnc3c(OC[C@@H]4CCCN4C)nc4c(F)c(-c5cccnc5C(F)(F)F)c(C)cc4c32)C[C@H]1CC#N` (single isomer, unassigned) [Example 205a], for which the IC50 (on KRAS G12C; in experiment [1]) was at most 100 nM throughout.
`C=CC(=O)N1C[C@H](n2cnc3c(N4CC(N(C)C)C4)nc4c(F)c(-c5cccc(C)c5C)c(Cl)cc4c32)C[C@@H]1CC#N` [Example 62, 2-((2R,4R)-1-acryloyl-4-(8-chloro-4-(3-(dimethylamino)azetidin-1-yl)-7-(2,3-dimethylphenyl)-6-fluoro-1H-imidazo[4,5-c]quinolin-1-yl)pyrrolidin-2-yl)acetonitrile]: the IC50 (on KRAS G12C; in experiment [1]) was at most 100 nM each time.
For the molecule `C=CC(=O)N1CCC(n2cnc3c(N4CC(N(C)CC)C4)nc4c(F)c(-c5cccc6cccc(Cl)c56)c(C)cc4c32)C[C@H]1CC#N` (single isomer, unassigned) [Example 223a], the IC50 (at KRAS G12C; in experiment [1]) was at most 100 nM each time.
For the molecule `C=CC(=O)N1CCC(n2nnc3c(N4CC(N(C)CC)C4)nc4c(F)c(-c5cccc6cccc(Cl)c56)c(Cl)cc4c32)C[C@H]1CC#N` (single isomer, unassigned) [Example 219a], the IC50 (at KRAS G12C; in experiment [1]) was at most 100 nM in each case.
With `C=CC(=O)N1CC[C@H](n2nnc3c(N4CC(N(C)C)C4)nc4c(F)c(-c5c(C)c(Cl)cc6[nH]ncc56)c(C#N)cc4c32)C[C@H]1CC#N` [Example 169, 1-((2S,4S)-1-acryloyl-2-(cyanomethyl)piperidin-4-yl)-7-(6-chloro-5-methyl-1H-indazol-4-yl)-4-(3-(dimethylamino)azetidin-1-yl)-6-fluoro-1H-[1,2,3]triazolo[4,5-c]quinoline-8-carbonitrile], the IC50 (on KRAS G12C; in experiment [1]) was at most 100 nM throughout.
Consider `Cc1cccc(-c2c(C)cc3c(nc(N4CC(C)(N(C)C)C4)c4nnn([C@H]5CCN(C(=O)/C=C/CF)[C@H](CC#N)C5)c43)c2F)c1C` [Example 209, 2-((2S,4S)-4-(4-(3-(dimethylamino)-3-methylazetidin-1-yl)-7-(2,3-dimethylphenyl)-6-fluoro-8-methyl-1H-[1,2,3]triazolo[4,5-c]quinolin-1-yl)-1-((E)-4-fluorobut-2-enoyl)piperidin-2-yl)acetonitrile], for which the IC50 (on KRAS G12C; in experiment [1]) was at most 100 nM throughout.
In the case of `C=CC(=O)N1CC[C@H](n2cnc3c(N4CC(N(C)C)C4)nc4c(F)c(-c5cccc6cccc(C)c56)c(Cl)cc4c32)C[C@H]1CC#N` [Example 68, 2-((2S,4S)-1-acryloyl-4-(8-chloro-4-(3-(dimethylamino)azetidin-1-yl)-6-fluoro-7-(8-methylnaphthalen-1-yl)-1H-imidazo[4,5-c]quinolin-1-yl)piperidin-2-yl)acetonitrile], the IC50 (on KRAS G12C; in experiment [1]) was at most 100 nM each time.
